Here are results for 1 compound from patent US11622951B2, “Alpha-aminoadipate for treatment of vision loss and restoring sight” (The Schepens Eye Research Institute, Inc., priority 2013, dated 2023).

Experiment [1] has as its system retinal glial cells (GFAP expression). The experiment can be described thus: GFAP immunolabeling of retinal glia after subretinal injection. The class given is in vivo, mouse. The following applies: adult wild-type mice. On the procedure: Mice were anesthetized by intraperitoneal injection of ketamine (62.5 mg/kg) and xylazine (12.5 mg/kg) and transcardially perfused with phosphate buffered saline (PBS) followed by 4% paraformaldehyde in PBS. Retinal flat-mounts or transverse retinal sections (14 μm) were preblocked with PBS containing 3% bovine serum albumin (Sigma-Aldrich, St. Louis, Mo.) and 0.3% Triton X (Sigma-Aldrich) and incubated, first, with primary antibody overnight, and then with secondary antibody for 1 hour at room temperature. […] Assessment of morphological integration were quantified by counting EGFP+ cells located outside of transplanted cell clusters in retinal whole-mounts. Statistical significance was determined by either the two tailed student t test or ANOVA.
Retinal astrocytes and Müller glia are central to the homeostatic and metabolic support of retinal neurons; whereas, after injury these cells develop glial scar that forms critical barriers to neuron regeneration and integration by retinal progenitor cells. […] Retinal glial morphology was examined by immunolabeling for glial marker GFAP and assessed the level of GFAP expression by Western blot at day 1-7 post injection. Expression of GFAP is widely detected in the normal mouse retinas (FIG. 1a).

Experiment [2] relates to GFAP. The experiment can be described thus: Western blot of GFAP expression in injected retinas. The class given is in vivo, mouse. On the procedure:
To determine the effect of α-AA on retinal glial cells, mouse retinas were dissected and homogenized in lysis buffer 3% sodium dodecyl sulfate (Sigma-Aldrich), 0.3 M sucrose (Sigma-Aldrich), 1 mM orthovanadium (Sigma-Aldrich)]. Protein concentrations were determined with a BCA assay (Pierce; Rockford, Ill.). Protein (20 μg) was loaded on a 10% sodium dodecyl sulfate-polyacrylamide gel and transferred to a nitrocellulose membrane. The blot was blocked in 1% bovine serum albumin (Sigma-Aldrich) and 4% dry milk in PBS and probed with primary antibodies against GFAP (1:1000; Chemicon; Temecula, Calif.) and β-actin (Sigma-Aldrich) as loading controls. After incubation with appropriate secondary antibodies conjugated to horseradish peroxidase (Jackson Immunochemicals; West Grove, Pa.), detection was performed with Super Signal West Pico (Pierce). Retinal astrocytes and Müller glia are central to the homeostatic and metabolic support of retinal neurons; whereas, after injury these cells develop glial scar that forms critical barriers to neuron regeneration and integration by retinal progenitor cells. […] Retinal glial morphology was examined by immunolabeling for glial marker GFAP and assessed the level of GFAP expression by Western blot at day 1-7 post injection. Expression of GFAP is widely detected in the normal mouse retinas (FIG. 1a).
A general note: Immunoblotting shows a protein as a band on a membrane.

For experiment [3], the system named is transplanted retinal progenitors. The experiment is described as follows: Differentiation of transplanted retinal progenitors in pretreated host retina (immunohistochemistry). The class given is in vivo, mouse. The following applies: pretreated wild-type hosts, 21 days post transplantation. On the procedure: Mice were anesthetized by intraperitoneal injection of ketamine (62.5 mg/kg) and xylazine (12.5 mg/kg) and transcardially perfused with phosphate buffered saline (PBS) followed by 4% paraformaldehyde in PBS. Retinal flat-mounts or transverse retinal sections (14 μm) were preblocked with PBS containing 3% bovine serum albumin (Sigma-Aldrich, St. Louis, Mo.) and 0.3% Triton X (Sigma-Aldrich) and incubated, first, with primary antibody overnight, and then with secondary antibody for 1 hour at room temperature. The following antibodies were used: Cy3-conjugated monoclonal antibody against GFAP (1:1000; Sigma), Brn-3b (1:200; Santa Cruz Biotechnology; Santa Cruz, Calif.), mouse anti-rhodopsin (1:4000; Rho1D4), chick anti-cone-opsin (1:300), and Cy-2, Cy-3 or Cy-5-conjugated secondary antibody (Jackson ImmunoResearch; West Grove, Pa.). Assessment of morphological integration were quantified by counting EGFP+ cells located outside of transplanted cell clusters in retinal whole-mounts. Statistical significance was determined by either the two tailed student t test or ANOVA.
At 2 days before transplantation, 2 μl of a solution containing either α-AA (1 μg/μl) or saline (control) was injected unilaterally into the subretinal space of recipient wild-type or Gnat1^−/− mice (>2 months old). […]

Experiment [4] has as its system retinal ganglion cells. The experiment can be described thus: Cell-attached patch clamp of retinal ganglion cells from Rho-/- mice. Further details: species or system mouse. The following applies: retinas extracted from treated eyes of Rho-/- mice, cells responding/recorded. On the procedure: Mice carrying rhodopsin deficiency (Rho^−/−) were used to determine if injection of alpha-aminoadipate (αAA) is sufficient to induce neuroregeneration from endogenous retinal progenitors, e.g., Muller cells, leading to preservation and restoration of photoreceptor cell function. Light-evoked photoreceptor responses and retinal functions in Rho^−/− mice that received αAA or saline injection were assessed using ERGS and whole cell-attached patch clamp. […] Consistent with the presence of ERG b-waves in αAA-treated eye, light-elicited spiking responses in some of the ganglion cells were observed (n=4/9) (FIG. 15 A, B). Similar to findings from other types of retinal degenerative mice, an elevated level of background firing in these cells, likely due to the changes in the excitability of the presynaptic network formed by bipolar cells and amacrine cells, were also observed. In contrast, no light-elicited responses in ganglion cells were recorded from the saline-injected eyes (n=4/4, FIG. 14C). […] Additional vision and optomotor tests known in the art are conducted to assess vision restoration, such as the water maze test. Thus, a single intraocular injection of αAA may be sufficient to improve vision, in part by increasing the number of cones.
A general note: The patch-clamp technique gives a direct electrical read-out from membranes.

Consider `NC(CCCC(=O)O)C(=O)O` (stereo not drawn) [α-AA, alpha-aminoadipate], for which the “GFAP immunostaining at the injection site” value in experiment [1] (by day 7 post injection) is reported as “reappeared at the injection site”. Also, the “GFAP expression around the injection site (immunolabeling)” value in experiment [1] (single subretinal injection 1 μg/μl, 1-3 days post injection) is on record as “effectively eliminated GFAP expression”. Besides, the “GFAP expression, Western blot quantification” value in experiment [2] (by day 7 post injection) is “returned to a control level”. Moreover, the “GFAP expression, Western blot quantification” value in experiment [2] (day 3 post injection, vs normal or saline-injected controls) is on record as “significant downregulation”. For the same compound, in experiment [3], the “EGFP+ cells integrated into the ONL cone-opsin positive” value was found to be 12% and the “EGFP+ cells integrated into the ONL positive for rhodopsin” value is on record as “Approximately 80%”. Besides, the “ganglion cells with light-elicited spiking responses” value in experiment [4] is 4/9.
